Experimental data: PubChem BioAssay AID2060887 (Molecular Pharmacology Branch, DTP, NCI, 2025)
pIC50: −log10 of the molar value.

Tested on: 782815-120-R-J1-PDC complex spheroid viability
Assay: Anticancer human tumor 782815-120-R-J1-PDC patient-derived colon adenocarcinoma cell line growth inhibition [RAS]
Details: for pIC50: curve of first compound; for viability, T/C: stronger effect = lower value
Method in brief: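 Agents were tested in combination matrices in half-log decrements from a top concentration at or near clinical Cmax (10 microM if undetermined). Targets were multi-cell spheroids of tumour lines plus HUVEC and MSC stromal cells.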
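Note: spheroids exposed to compounds for 7 days before reading.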
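Throughout, for viability, T/C: 100% = DMSO vehicle control viability.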

NC1c2ccccc2OC12CCN(c1cnc3c(N4CCCc5ncccc54)n[nH]c3n1)CC2 (centres undefined) + C#Cc1c(F)ccc2cc(O)cc(-c3ncc4c(N5CC6CCC(C5)N6)nc(OCC56CCCN5CC(F)C6)nc4c3F)c12
pIC50 (second compound 0.0316 µM): < 5.00
pIC50 (second compound 0.1 µM): < 5.00
pIC50 (second compound 0.316 µM): < 5.00
pIC50 (second compound 1 µM): < 5.00
pIC50 (second compound 3.16 µM): < 5.00
pIC50 (second compound 10 µM): < 5.00
viability, T/C (second compound 0.0316 µM, first compound 0.0316 µM): 110%
viability, T/C (second compound 0.0316 µM, first compound 0.1 µM): 104%
viability, T/C (second compound 0.0316 µM, first compound 0.316 µM): 111%
viability, T/C (second compound 0.0316 µM, first compound 1 µM): 95.3%
viability, T/C (second compound 0.0316 µM, first compound 3.16 µM): 99.8%
viability, T/C (second compound 0.0316 µM, first compound 10 µM): 84%
viability, T/C (second compound 0.1 µM, first compound 0.0316 µM): 103%
viability, T/C (second compound 0.1 µM, first compound 0.1 µM): 96%
viability, T/C (second compound 0.1 µM, first compound 0.316 µM): 110%
viability, T/C (second compound 0.1 µM, first compound 1 µM): 106%
viability, T/C (second compound 0.1 µM, first compound 3.16 µM): 94.4%
viability, T/C (second compound 0.1 µM, first compound 10 µM): 76.6%
viability, T/C (second compound 0.316 µM, first compound 0.0316 µM): 99.6%
viability, T/C (second compound 0.316 µM, first compound 0.1 µM): 105%
viability, T/C (second compound 0.316 µM, first compound 0.316 µM): 103%
viability, T/C (second compound 0.316 µM, first compound 1 µM): 106%
viability, T/C (second compound 0.316 µM, first compound 3.16 µM): 96.7%
viability, T/C (second compound 0.316 µM, first compound 10 µM): 90.4%
viability, T/C (second compound 1 µM, first compound 0.0316 µM): 109%
viability, T/C (second compound 1 µM, first compound 0.1 µM): 102%
viability, T/C (second compound 1 µM, first compound 0.316 µM): 110%
viability, T/C (second compound 1 µM, first compound 1 µM): 106%
viability, T/C (second compound 1 µM, first compound 3.16 µM): 105%
viability, T/C (second compound 1 µM, first compound 10 µM): 83.7%
viability, T/C (second compound 3.16 µM, first compound 0.0316 µM): 102%
viability, T/C (second compound 3.16 µM, first compound 0.1 µM): 97.1%
viability, T/C (second compound 3.16 µM, first compound 0.316 µM): 102%
viability, T/C (second compound 3.16 µM, first compound 1 µM): 98.9%
viability, T/C (second compound 3.16 µM, first compound 3.16 µM): 99%
viability, T/C (second compound 3.16 µM, first compound 10 µM): 96.7%
viability, T/C (second compound 10 µM, first compound 0.0316 µM): 101%
viability, T/C (second compound 10 µM, first compound 0.1 µM): 101%
viability, T/C (second compound 10 µM, first compound 0.316 µM): 115%
viability, T/C (second compound 10 µM, first compound 1 µM): 100%
viability, T/C (second compound 10 µM, first compound 3.16 µM): 94.7%
viability, T/C (second compound 10 µM, first compound 10 µM): 80.4%

CC(C)NCC(C(=O)N1CCN(c2ncnc3c2C(C)CC3O)CC1)c1ccc(Cl)cc1 (centres undefined) + CCn1c(-c2cc(N3CCN(C)CC3)cnc2C(C)OC)c2c3cc(ccc31)-c1csc(n1)CC(NC(=O)C1CC1C)C(=O)N1CCCC(N1)C(=O)OCC(C)(C)C2
pIC50 (second compound 0.000949 µM): < 5.00
pIC50 (second compound 0.003 µM): < 5.00
pIC50 (second compound 0.00949 µM): > 7.50
pIC50 (second compound 0.03 µM): > 7.50
pIC50 (second compound 0.0949 µM): > 7.50
pIC50 (second compound 0.3 µM): > 7.50
viability, T/C (second compound 0.000949 µM, first compound 0.0316 µM): 79.6%
viability, T/C (second compound 0.000949 µM, first compound 0.1 µM): 77.7%
viability, T/C (second compound 0.000949 µM, first compound 0.316 µM): 74.5%
viability, T/C (second compound 0.000949 µM, first compound 1 µM): 71.6%
viability, T/C (second compound 0.000949 µM, first compound 3.16 µM): 77.4%
viability, T/C (second compound 0.000949 µM, first compound 10 µM): 87.9%
viability, T/C (second compound 0.003 µM, first compound 0.0316 µM): 57.2%
viability, T/C (second compound 0.003 µM, first compound 0.1 µM): 54.8%
viability, T/C (second compound 0.003 µM, first compound 0.316 µM): 61.9%
viability, T/C (second compound 0.003 µM, first compound 1 µM): 50.3%
viability, T/C (second compound 0.003 µM, first compound 3.16 µM): 57.2%
viability, T/C (second compound 0.003 µM, first compound 10 µM): 51.3%
viability, T/C (second compound 0.00949 µM, first compound 0.0316 µM): 34.2%
viability, T/C (second compound 0.00949 µM, first compound 0.1 µM): 33.1%
viability, T/C (second compound 0.00949 µM, first compound 0.316 µM): 35.3%
viability, T/C (second compound 0.00949 µM, first compound 1 µM): 30.1%
viability, T/C (second compound 0.00949 µM, first compound 3.16 µM): 30%
viability, T/C (second compound 0.00949 µM, first compound 10 µM): 26.4%
viability, T/C (second compound 0.03 µM, first compound 0.0316 µM): 20.2%
viability, T/C (second compound 0.03 µM, first compound 0.1 µM): 19.9%
viability, T/C (second compound 0.03 µM, first compound 0.316 µM): 19.1%
viability, T/C (second compound 0.03 µM, first compound 1 µM): 17.2%
viability, T/C (second compound 0.03 µM, first compound 3.16 µM): 16.5%
viability, T/C (second compound 0.03 µM, first compound 10 µM): 16.1%
viability, T/C (second compound 0.0949 µM, first compound 0.0316 µM): 17.2%
viability, T/C (second compound 0.0949 µM, first compound 0.1 µM): 17.7%
viability, T/C (second compound 0.0949 µM, first compound 0.316 µM): 18.8%
viability, T/C (second compound 0.0949 µM, first compound 1 µM): 15%
viability, T/C (second compound 0.0949 µM, first compound 3.16 µM): 16.1%
viability, T/C (second compound 0.0949 µM, first compound 10 µM): 11%
viability, T/C (second compound 0.3 µM, first compound 0.0316 µM): 18.3%
viability, T/C (second compound 0.3 µM, first compound 0.1 µM): 17.4%
viability, T/C (second compound 0.3 µM, first compound 0.316 µM): 15.3%
viability, T/C (second compound 0.3 µM, first compound 1 µM): 14.8%
viability, T/C (second compound 0.3 µM, first compound 3.16 µM): 14.3%
viability, T/C (second compound 0.3 µM, first compound 10 µM): 8.75%
